Source: US10842892B2, “Methods and apparatus for synthesizing imaging agents, and intermediates thereof” (Lantheus Medical Imaging, Inc., priority 2010, dated 2020)
Several values for one entry are separate records, joined by “and”; a condition that tells them apart may be missing. Equal values may be shown once.

Legend:
[1] = early elimination of ^18F in urine; format: in vivo, human
Description: Urine collected pre-dose (Baseline), and all voids up to 8 hours post-dose were collected and assayed for ^18F. However, as in blood collection, the urine collection terminated near the 7-hour minimum specified in the protocol. Mean urinary excretion over the approximate 7-hour void interval was 4.83% ID with a % CV of 64.7 and a range of 0.64% ID to 12.41% ID. This finding is in reasonable agreement with cumulative urine excretion of 5% as measured with PET imaging.

myocardial blood flow = conditions: humans, assumed, equivalent to prior studies; cited from earlier work
[2] = syringe adsorption of imaging agent 1; format: physicochemical; conditions: three hours, ambient temperature
Description: The two sets of filled syringes were maintained at ambient temperature and humidity for a period of three hours, at which time the contents were injected into a clean 5 cc glass vial; a consistent volume of imaging agent 1 (0.1 mL) remained in the hub of each syringe. The total radioactivity content of both the vial and syringe were measured, decay corrected and the percent retention calculated. The difference in percent retained activity is statistically significant at the 95% confidence level (i.e. Prob>|t| 0.0005).

normal rats and dogs = conditions: cited from earlier work
patients = experiment: Phase 2 clinical safety of imaging agent 1 injection; format: in vivo, human
normal subjects = experiment: human safety, dosimetry, biodistribution and rest-stress myocardial imaging in normal subjects; format: in vivo
Description: 25 normal subjects were enrolled in 2 studies: 13 received 222 MBq I.V. At rest (R) only and 12 more subjects received 94 MBq at R and, on a second day, 124 MBq at peak adenosine stress (Adeno, n=6) or at peak treadmill exercise (Ex, n=6). Physical exam, laboratory, vital signs, ECG, and EEG were monitored pre- and post-injection. Myocardial (Myo), liver, blood pool and lung Standardized Uptake Values (SUV) were determined from sequential PET images over time. Mean dose for various organs and mean effective dose (ED in mSv/MBq) were estimated.

## CC(C)(C)n1ncc(OCc2ccc(COCC[18F])cc2)c(Cl)c1=O [imaging agent 1, 2-t-butyl-4-chloro-5-[4-(2-(^18F)fluoroethoxymethyl)-benzyloxy]-2H-pyridazin-3-1]
[1]; approximate 7-hour void interval
  Mean urinary excretion: 4.83 % ID
[1]; in vivo
  cumulative urine excretion as measured with PET imaging: 5%
Myocardial blood flow
  first pass extraction fraction: 0.94
[2]; B&D (Becton & Dickinson) three-component syringe
  Retained Activity in syringe: 35.2% and 38.9% and 32.4%
[2]; HSW (Henke Sass Wolf) two-component syringe
  Retained Activity in syringe: 11.3% and 7.0% and 5.1%
Normal rats and dogs
  concentration (dose) inducing transit clinical signs (rapid and labored breathing, decreased activity, hunched posture, urination): ≥ 200 µg/kg
  dose at which these clinical signs were not observed: ≤ 100 µg/kg
patients; 143 patients
  AEs judged to be related to the study drug: 7
  patients with AEs judged to be related to the study drug: 2
  seriousness of related AEs: none were serious
  treatment emergent adverse events (AEs) reported: 100
patients; human, in vivo
  ECG at rest: effect on heart rate, PR interval, QRS duration, QTcF duration: no evidence of any clinically relevant effect
patients; of 143 patients
  patients reporting treatment emergent adverse events: 61
Normal subjects; 25 normal subjects
  adverse events: no adverse events related to the tracer
Normal subjects; 10 mins
  Adeno Myo SUV: 10.5 ± 1.5
  Adeno Myo/liver: 1.9 ± 0.6
  Exercise Myo SUV: 6.2 ± 2.1
  Exercise Myo/liver: 28.0 ± 33.6
  Rest Myo SUV: 3.9 ± 0.9
  Rest Myo/liver: 1.0 ± 0.3
Normal subjects; 30 mins
  Adeno Myo SUV: 10.8 ± 2.1
  Adeno Myo/liver: 2.0 ± 0.5
  Exercise Myo SUV: 5.5 ± 1.0
  Exercise Myo/liver: 5.6 ± 1.0
  Rest Myo SUV: 4.2 ± 1.1
  Rest Myo/liver: 0.9 ± 0.2
Normal subjects; 60 mins
  Adeno Myo SUV: 10.3 ± 2.1
  Adeno Myo/liver: 2.2 ± 0.5
  Exercise Myo SUV: 5.1 ± 0.9
  Exercise Myo/liver: 5.6 ± 1.3
  Rest Myo SUV: 4.5 ± 1.2
  Rest Myo/liver: 1.1 ± 0.2
Normal subjects; 90 mins
  Adeno Myo SUV: 9.6 ± 2.1
  Adeno Myo/liver: 2.6 ± 0.5
  Exercise Myo SUV: 4.9 ± 0.9
  Exercise Myo/liver: 5.8 ± 1.5
  Rest Myo SUV: 4.3 ± 1.3
  Rest Myo/liver: 1.4 ± 0.2
Normal subjects; 149 mins
  Adeno Myo SUV: 8.4 ± 2.1
  Adeno Myo/liver: 3.8 ± 1.0
  Exercise Myo SUV: 4.5 ± 0.8
  Exercise Myo/liver: 5.5 ± 1.5
  Rest Myo SUV: 4.1 ± 1.4
  Rest Myo/liver: 2.1 ± 0.3
Normal subjects; at rest (R)
  mean effective dose (ED): 0.019 mSv/MBq
Normal subjects; with adenosine stress (Adeno)
  mean effective dose (ED): 0.019 mSv/MBq
Normal subjects; with exercise (Ex)
  mean effective dose (ED): 0.015 mSv/MBq
